Assay [1] addresses Glutamate [NMDA] receptor. Description: Mean inhibitory concentration against [3H]MK-801 binding to porcine N-methyl-D-aspartate (NMDA) glutamate receptor; n=3. The format is protein-complex assay, Sus scrofa.
Assay [2] concerns the target Glutamate [NMDA] receptor. Description: Mean inhibitory constant against porcine N-methyl-D-aspartate (NMDA) glutamate receptor; n=3. It is filed as protein-complex assay, Sus scrofa.
Assay [3] deals with Glutamate [NMDA] receptor. Description: Mean inhibitory concentration against [3H]ifenprodil binding to porcine N-methyl-D-aspartate (NMDA) glutamate receptor; n=3. The format is protein-complex assay, Sus scrofa.
A short description of assay [4]: Mean inhibitory concentration against rat N-methyl-D-aspartate (NMDA) glutamate receptor 1a/2D expressed in Xenopus oocytes. It is filed as cell-based. Particulars: oocyte.
Assay [5] concerns the target Glutamate NMDA receptor; Grin1/Grin2a (Rattus norvegicus, UniProt P35439+Q00959). The experiment in a line: Mean inhibitory concentration against rat N-methyl-D-aspartate (NMDA) glutamate receptor 1a/2A expressed in Xenopus oocytes. The format is cell-based, Oocyte.
Assay [6] concerns the target Glutamate NMDA receptor; Grin1/Grin2c (Rattus norvegicus, UniProt P35439+Q00961). Description: Mean inhibitory concentration against rat N-methyl-D-aspartate (NMDA) glutamate receptor 1a/2C expressed in Xenopus oocytes. The format is cell-based, Oocyte.
For assay [7], the target named is Glutamate NMDA receptor; Grin1/Grin2b (Rattus norvegicus, UniProt P35439+Q00960). Description: Mean inhibitory concentration against rat N-methyl-D-aspartate (NMDA) glutamate receptor 1a/2B expressed in Xenopus oocytes. It is filed as cell-based, Oocyte.
Chain of Glutamate NMDA receptor; Grin1/Grin2b (Q00960 whole entry, other chains not shown): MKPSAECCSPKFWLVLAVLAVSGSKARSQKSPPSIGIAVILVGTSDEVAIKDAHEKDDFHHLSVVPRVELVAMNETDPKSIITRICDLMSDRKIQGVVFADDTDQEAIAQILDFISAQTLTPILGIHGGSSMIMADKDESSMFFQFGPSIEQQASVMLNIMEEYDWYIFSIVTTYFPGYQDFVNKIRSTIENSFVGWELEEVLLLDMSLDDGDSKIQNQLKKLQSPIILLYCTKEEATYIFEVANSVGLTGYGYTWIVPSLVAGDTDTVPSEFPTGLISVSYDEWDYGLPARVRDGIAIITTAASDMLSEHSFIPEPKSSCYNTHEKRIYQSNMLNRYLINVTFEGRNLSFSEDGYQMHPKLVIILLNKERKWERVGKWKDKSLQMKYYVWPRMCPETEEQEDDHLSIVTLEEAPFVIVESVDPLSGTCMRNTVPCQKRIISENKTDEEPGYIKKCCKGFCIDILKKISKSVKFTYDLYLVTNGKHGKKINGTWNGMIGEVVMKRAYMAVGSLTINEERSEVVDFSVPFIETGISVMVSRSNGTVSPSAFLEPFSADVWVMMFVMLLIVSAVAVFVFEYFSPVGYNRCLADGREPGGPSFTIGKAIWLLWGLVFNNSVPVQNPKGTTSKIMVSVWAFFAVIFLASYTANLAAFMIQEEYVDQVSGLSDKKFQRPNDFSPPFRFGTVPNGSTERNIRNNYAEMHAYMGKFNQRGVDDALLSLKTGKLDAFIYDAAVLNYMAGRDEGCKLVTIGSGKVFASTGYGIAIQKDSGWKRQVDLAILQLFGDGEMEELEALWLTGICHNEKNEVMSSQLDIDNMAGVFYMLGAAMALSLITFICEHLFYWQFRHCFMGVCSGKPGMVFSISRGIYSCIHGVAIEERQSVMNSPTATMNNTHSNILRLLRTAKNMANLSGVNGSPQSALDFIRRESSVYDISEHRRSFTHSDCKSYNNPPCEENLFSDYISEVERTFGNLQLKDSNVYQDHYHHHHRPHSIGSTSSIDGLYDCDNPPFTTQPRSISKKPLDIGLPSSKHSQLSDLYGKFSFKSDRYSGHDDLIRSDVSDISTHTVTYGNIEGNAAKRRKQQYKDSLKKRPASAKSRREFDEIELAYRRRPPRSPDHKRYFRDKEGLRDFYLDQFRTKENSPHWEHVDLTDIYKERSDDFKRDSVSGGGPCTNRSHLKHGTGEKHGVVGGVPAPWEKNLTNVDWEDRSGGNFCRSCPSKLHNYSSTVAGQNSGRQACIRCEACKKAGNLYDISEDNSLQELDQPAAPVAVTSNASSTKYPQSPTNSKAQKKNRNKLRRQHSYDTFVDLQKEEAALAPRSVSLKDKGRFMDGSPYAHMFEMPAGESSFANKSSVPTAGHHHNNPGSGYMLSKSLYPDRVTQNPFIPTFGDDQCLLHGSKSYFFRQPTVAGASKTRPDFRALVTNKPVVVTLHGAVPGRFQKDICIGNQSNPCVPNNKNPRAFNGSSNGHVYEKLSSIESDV
For assay [8], the target named is Glutamate [NMDA] receptor (Homo sapiens) (UniProt Q05586+Q12879+Q13224+O15399+O60391+Q14957+Q8TCU5). Description: Specific binding of [3H]ifenprodil to N-methyl-D-aspartate (NMDA) glutamate receptor remaining in presence of 100 uM inhibitor. The format is protein-complex assay. Particulars: Sus scrofa.
The target in assay [9] is Glutamate [NMDA] receptor. The experiment in a line: Mean inhibitory concentration against [3H]ifenprodil binding to porcine N-methyl-D-aspartate (NMDA) glutamate receptor; n=1. The format is protein-complex assay, Sus scrofa.
Assay [10] addresses Glutamate [NMDA] receptor. Description: Mean inhibitory constant against porcine N-methyl-D-aspartate (NMDA) glutamate receptor; n=1. It is filed as protein-complex assay, Sus scrofa.

Chain of Glutamate NMDA receptor; Grin1/Grin2a (Q00959 whole entry, other chains not shown): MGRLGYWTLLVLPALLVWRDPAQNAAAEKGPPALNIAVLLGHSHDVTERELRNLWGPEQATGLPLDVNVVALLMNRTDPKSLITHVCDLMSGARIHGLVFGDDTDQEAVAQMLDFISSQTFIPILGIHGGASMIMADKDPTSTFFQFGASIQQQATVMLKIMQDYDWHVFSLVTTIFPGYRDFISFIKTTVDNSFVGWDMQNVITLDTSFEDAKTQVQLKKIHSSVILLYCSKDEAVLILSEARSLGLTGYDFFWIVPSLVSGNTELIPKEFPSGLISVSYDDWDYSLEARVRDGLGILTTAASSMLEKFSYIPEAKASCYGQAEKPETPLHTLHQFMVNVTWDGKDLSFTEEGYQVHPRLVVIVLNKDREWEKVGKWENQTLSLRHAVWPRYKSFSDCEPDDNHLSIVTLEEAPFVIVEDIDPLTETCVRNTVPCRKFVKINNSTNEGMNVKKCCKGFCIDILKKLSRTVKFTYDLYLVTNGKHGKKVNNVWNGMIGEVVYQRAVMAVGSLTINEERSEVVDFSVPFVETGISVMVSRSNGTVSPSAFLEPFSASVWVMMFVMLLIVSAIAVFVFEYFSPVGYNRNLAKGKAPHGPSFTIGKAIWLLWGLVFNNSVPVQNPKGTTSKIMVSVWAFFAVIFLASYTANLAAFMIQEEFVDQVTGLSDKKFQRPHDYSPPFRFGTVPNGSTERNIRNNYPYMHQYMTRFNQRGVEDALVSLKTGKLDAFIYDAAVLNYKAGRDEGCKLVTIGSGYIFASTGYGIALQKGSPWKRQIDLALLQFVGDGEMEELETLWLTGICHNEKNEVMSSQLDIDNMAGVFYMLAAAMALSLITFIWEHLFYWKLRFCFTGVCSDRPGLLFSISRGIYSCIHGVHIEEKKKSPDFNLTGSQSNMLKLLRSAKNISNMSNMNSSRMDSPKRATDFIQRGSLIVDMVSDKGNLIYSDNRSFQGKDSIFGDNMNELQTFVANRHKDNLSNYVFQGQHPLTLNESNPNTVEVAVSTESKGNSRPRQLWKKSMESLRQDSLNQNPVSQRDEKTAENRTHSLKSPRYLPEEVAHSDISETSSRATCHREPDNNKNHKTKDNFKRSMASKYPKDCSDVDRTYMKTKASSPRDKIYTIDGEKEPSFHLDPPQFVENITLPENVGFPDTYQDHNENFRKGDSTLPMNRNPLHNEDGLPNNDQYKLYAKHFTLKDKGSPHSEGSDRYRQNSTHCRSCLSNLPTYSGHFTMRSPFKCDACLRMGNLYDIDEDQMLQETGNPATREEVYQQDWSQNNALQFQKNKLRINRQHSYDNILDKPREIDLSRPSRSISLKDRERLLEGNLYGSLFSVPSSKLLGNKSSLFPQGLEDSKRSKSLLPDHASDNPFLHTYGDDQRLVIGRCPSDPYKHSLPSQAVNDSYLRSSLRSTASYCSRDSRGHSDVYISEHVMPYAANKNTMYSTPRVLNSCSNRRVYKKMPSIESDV
Chain of Glutamate NMDA receptor; Grin1/Grin2c (Q00961 whole entry, other chains not shown): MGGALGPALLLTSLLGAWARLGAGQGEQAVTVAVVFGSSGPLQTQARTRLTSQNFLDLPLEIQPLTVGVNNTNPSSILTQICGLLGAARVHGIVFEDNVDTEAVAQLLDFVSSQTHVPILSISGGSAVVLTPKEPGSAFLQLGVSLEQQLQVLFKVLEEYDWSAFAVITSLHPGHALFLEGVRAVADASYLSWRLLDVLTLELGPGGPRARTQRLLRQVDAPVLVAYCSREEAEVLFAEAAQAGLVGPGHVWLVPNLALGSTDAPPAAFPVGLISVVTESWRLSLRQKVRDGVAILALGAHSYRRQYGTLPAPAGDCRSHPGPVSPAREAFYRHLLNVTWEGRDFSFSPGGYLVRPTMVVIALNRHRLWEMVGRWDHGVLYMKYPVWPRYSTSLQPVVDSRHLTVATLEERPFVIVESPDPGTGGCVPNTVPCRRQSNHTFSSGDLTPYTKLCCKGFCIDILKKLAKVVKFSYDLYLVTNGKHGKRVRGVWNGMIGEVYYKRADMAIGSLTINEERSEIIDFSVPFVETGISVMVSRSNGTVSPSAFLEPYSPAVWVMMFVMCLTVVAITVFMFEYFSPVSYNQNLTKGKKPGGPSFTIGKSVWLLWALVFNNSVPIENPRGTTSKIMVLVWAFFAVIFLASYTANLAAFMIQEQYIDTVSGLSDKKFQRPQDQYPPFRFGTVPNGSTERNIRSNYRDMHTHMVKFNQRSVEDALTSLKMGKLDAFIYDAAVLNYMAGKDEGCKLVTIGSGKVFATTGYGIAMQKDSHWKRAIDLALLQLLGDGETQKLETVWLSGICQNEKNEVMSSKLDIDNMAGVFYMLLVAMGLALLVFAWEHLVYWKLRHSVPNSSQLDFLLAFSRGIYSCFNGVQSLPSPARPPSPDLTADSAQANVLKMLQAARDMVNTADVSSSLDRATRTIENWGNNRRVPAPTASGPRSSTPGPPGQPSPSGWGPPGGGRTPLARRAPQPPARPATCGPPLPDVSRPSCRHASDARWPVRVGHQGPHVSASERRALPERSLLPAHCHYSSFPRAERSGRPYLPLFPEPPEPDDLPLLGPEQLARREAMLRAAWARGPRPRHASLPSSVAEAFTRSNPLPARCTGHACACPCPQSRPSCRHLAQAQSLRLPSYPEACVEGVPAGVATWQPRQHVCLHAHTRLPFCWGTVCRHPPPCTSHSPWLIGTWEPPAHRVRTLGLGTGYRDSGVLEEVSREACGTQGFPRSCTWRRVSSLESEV

With `COc1cc2c(cc1OC)[C@@H](C[C@@H](O)c1ccc(Cl)cc1)N(C)CC2`, the IC50 in assay [1] turned out to be 56 µM; in assay [3] it was 100 µM. The compound further registered a Ki in [2] of 7 nM.

In the case of `COc1cc2c(cc1OC)[C@H](C[C@H](O)c1ccc(Cl)cc1)NCC2`, the IC50 in assay [4] was determined as 48.4 µM; in assay [1], 7.4 µM; in assay [5], 104 µM; in assay [3], 1.1 µM; in assay [6], 24.9 µM; in [7], 10.5 µM. In assay [2], this compound came in with a Ki of 920 nM.

Take `COc1ccc([C@@H](O)C[C@@H]2c3cc(OC)c(OC)cc3CCN2C)cc1`: the Binding in [8] was 87%. This compound also displayed an IC50 in assay [1] of 120 µM. Further, the Ki in assay [2] is 380 nM.

In the case of `COc1ccc([C@@H](O)C[C@H]2c3cc(OC)c(OC)cc3CCN2C)cc1`, the IC50 in [4] was 341 µM; in assay [1], 4.6 µM; in assay [5] it was 107 µM; in assay [3], 0.24 µM; in assay [6], 155 µM; in assay [7] it was 3.16 µM. The same compound had a Ki in [2] of 2700 nM.

Regarding `COc1cc2c(cc1OC)[C@H](C[C@H](O)c1ccc(Cl)cc1)N(C)CC2`, the IC50 worked out at 27.5 µM in assay [4]; 0.96 µM in assay [1]; 137 µM in [5]; 0.059 µM in assay [3]; 5.29 µM in assay [6]; 1.32 µM in assay [7]. Further, the affinity in [2], expressed as Ki, was 500 nM.

Take `COc1ccc([C@H](O)C[C@H]2NCCc3cc(OC)c(OC)cc32)cc1`: in assay [8], the Binding was found to be 63%. In addition, the IC50 in assay [1] came to 120 µM. Affinity in assay [2] was put at a Ki of 720 nM.

Consider `COc1ccc([C@H](O)C[C@@H]2NCCc3cc(OC)c(OC)cc32)cc1`, for which the IC50 in [1] was 110 µM; in assay [9], 243 µM. Affinity in assay [2] was put at a Ki of 5800 nM.

Consider `COc1cc2c(cc1OC)[C@@H](C[C@H](O)c1ccc(Cl)cc1)N(C)CC2`, for which the IC50 in assay [1] worked out at 31 µM; in [3], 24 µM. The compound further displayed a Ki in [2] of 110 nM.

As to `COc1cc2c(cc1OC)[C@H](C[C@@H](O)c1ccc(Cl)cc1)NCC2`, the IC50 came out at 34 µM in [1] and 95 µM in [3]. In assay [2], this compound came in with a Ki of 2600 nM.

With `COc1ccc([C@@H](O)C[C@H]2NCCc3cc(OC)c(OC)cc32)cc1`, the figures for the IC50 in assay [1] and in assay [9] were 140 µM and 420 µM, respectively. Also, the Ki in assay [2] was found to be 11000 nM.

Take `COc1ccc([C@H](O)C[C@H]2c3cc(OC)c(OC)cc3CCN2C)cc1`: the Binding in assay [8] came out at 34%. Also, the Ki in [10] stood at 22 µM.

Consider `COc1cc2c(cc1OC)[C@@H](C[C@@H](O)c1ccc(Cl)cc1)NCC2`, for which the IC50 in assay [1] came to 37 µM; in assay [9] it was 290 µM. The same compound returned an inhibition constant Ki in [2] of 260 nM.

As to `COc1cc2c(cc1OC)[C@H](C[C@@H](O)c1ccc(Cl)cc1)N(C)CC2`, the IC50 in assay [1] was found to be 45 µM; in [3] it was 52 µM. Besides, affinity in assay [2] was put at a Ki of 2700 nM.

As for `COc1cc2c(cc1OC)[C@@H](C[C@H](O)c1ccc(Cl)cc1)NCC2`, the IC50 in assay [1] turned out to be 40 µM; in [3] it was 43 µM. In assay [2], this compound showed a Ki of 6700 nM.

As to `COc1ccc([C@@H](O)C[C@@H]2NCCc3cc(OC)c(OC)cc32)cc1`, the results for the IC50 in assay [1] and in assay [3] were 29 µM and 14 µM, respectively.

Consider `COc1ccc([C@H](O)C[C@@H]2c3cc(OC)c(OC)cc3CCN2C)cc1`, for which the Binding in assay [8] was 50%. In addition, in assay [2], the Ki is 60 nM.

Source of the values: ChEMBL document CHEMBL1144373, “NMDA-NR2B subtype selectivity of stereoisomeric 2-(1,2,3,4-tetrahydro-1-isoquinolyl)ethanol derivatives” (Bioorg Med Chem Lett, 2005).
